A short description of the series: Chiral / configurational stability at the carbon alpha to the ketone. It counts as physicochemical.

On to `[2H]C1(NC(=O)[C@H](CC(C)C)NC(=O)c2ccc3ccccc3n2)CCCN(S(=O)(=O)c2cccc[n+]2[O-])C([2H])([2H])C1=O` (stereo partly drawn) [Formula (I), quinoline-2-carboxylic acid {(S)-3-methyl-1-[(2,2,4-trideuterio)-3-oxo-1-(1-oxy-pyridine-2-sulfonyl)-azepan-4-ylcarbamoyl]-butyl}amide], for which the “configurational stability at the carbon center alpha to the ketone” value (compared to the corresponding 5 and 6 membered ring compounds) is “configurationally more stable”. Moreover, the chiral stability result (compared to the protonated isomer) was “superior chiral stability”.

Source of the values: patent US6596715B1, “Protease inhibitors” (SmithKline Beecham Corporation, priority 1999, dated 2003).
